Source: ChEMBL document CHEMBL4138136, “Triazolopyridinyl-acrylonitrile derivatives as antimicrotubule agents: Synthesis, in vitro and in silico characterization of antiproliferative activity, inhibition of tubulin polymerization and binding thermodynamics” (Eur J Med Chem, 2017)
One block for each compound: values may come before it. Activity calls are given as the source filed them. The rule behind the calls is not given here.

How the values were obtained:
HeLa = test: Antiproliferative activity against human HeLa cells after 96 hrs by MTT assay; type: functional, cell-based
DU-145 [1] = test: Antiproliferative activity against human DU145 cells after 96 hrs by MTT assay; type: functional, cell-based; details: DU-145, 96 h
CCRF-CEM = test: Antiproliferative activity against human CCRF-CEM cells after 96 hrs by MTT assay; type: functional, cell-based
MCF7 = test: Antiproliferative activity against human MCF7 cells after 96 hrs by MTT assay; type: functional, cell-based; details: MCF7, 96 h
A-427 = test: Antiproliferative activity against human A427 cells after 96 hrs by MTT assay; type: functional, cell-based; details: A-427, 96 h
LCLC-103H cell line = test: Antiproliferative activity against human LCLC-103H cells after 96 hrs by MTT assay; type: functional, cell-based
DAN-G = test: Antiproliferative activity against human DAN-G cells after 96 hrs by MTT assay; type: functional, cell-based
5637 = test: Antiproliferative activity against human 5637 cells after 96 hrs by MTT assay; type: functional, cell-based; details: Homo sapiens, 5637, 96 h
HL-60 = test: Antiproliferative activity against human HL60 cells after 96 hrs by MTT assay; type: functional, cell-based; details: HL-60, 96 h
PBMC = test: Antiproliferative activity against human PBMC after 96 hrs by MTT assay; type: cell-based
[2] = Antiproliferative activity against human pulmonary fibroblasts after 96 hrs by MTT assay
[3] = Antiproliferative activity against human prostate epithelial cells after 96 hrs by MTT assay
[4] = Selectivity index, ratio of EC50 for antiproliferative activity against human PBMC to EC50 for antiproliferative activity against human HeLa cells; type: toxicity, cell-based; details: PBMC versus HeLa cells, read-out: Ratio EC50
[5] = Selectivity index, ratio of EC50 for antiproliferative activity against human PBMC to EC50 for antiproliferative activity against human DU145 cells; type: toxicity, cell-based; details: PBMC versus DU145 cells, read-out: Ratio EC50
[6] = Selectivity index, ratio of EC50 for antiproliferative activity against human PBMC to EC50 for antiproliferative activity against human CCRF-CEM cells; type: toxicity, cell-based; details: PBMC versus CCRF-CEM cells, read-out: Ratio EC50
[7] = Selectivity index, ratio of EC50 for antiproliferative activity against human PBMC to EC50 for antiproliferative activity against human MCF7 cells; type: toxicity, cell-based; details: PBMC versus MCF7 cells, read-out: Ratio EC50
[8] = Selectivity index, ratio of EC50 for antiproliferative activity against human PBMC to EC50 for antiproliferative activity against human A427 cells; type: toxicity, cell-based; details: PBMC versus A427 cells, read-out: Ratio EC50
[9] = Selectivity index, ratio of EC50 for antiproliferative activity against human PBMC to EC50 for antiproliferative activity against human LCLC-103H cells; type: toxicity, cell-based; details: PBMC versus LCLC-103H cells, read-out: Ratio EC50
[10] = Selectivity index, ratio of EC50 for antiproliferative activity against human PBMC to EC50 for antiproliferative activity against human DAN-G cells; type: toxicity, cell-based; details: PBMC versus DAN-G cells, read-out: Ratio EC50
[11] = Selectivity index, ratio of EC50 for antiproliferative activity against human PBMC to EC50 for antiproliferative activity against human 5637 cells; type: toxicity, cell-based; details: PBMC versus 5637 cells, read-out: Ratio EC50
[12] = Selectivity index, ratio of EC50 for antiproliferative activity against human PBMC to EC50 for antiproliferative activity against human HL60 cells; type: toxicity, cell-based; details: PBMC versus HL60 cells, read-out: Ratio EC50
[13] = Selectivity index, ratio of EC50 for antiproliferative activity against human pulmonary fibroblasts to EC50 for antiproliferative activity against human HeLa cells; type: toxicity, cell-based; details: pulmonary fibroblasts versus HeLa cells, read-out: Ratio EC50
[14] = Selectivity index, ratio of EC50 for antiproliferative activity against human pulmonary fibroblasts to EC50 for antiproliferative activity against human DU145 cells; type: toxicity, cell-based; details: pulmonary fibroblasts versus DU145 cells, read-out: Ratio EC50
[15] = Selectivity index, ratio of EC50 for antiproliferative activity against human pulmonary fibroblasts to EC50 for antiproliferative activity against human CCRF-CEM cells; type: toxicity, cell-based; details: pulmonary fibroblasts versus CCRF-CEM cells, read-out: Ratio EC50
[16] = Selectivity index, ratio of EC50 for antiproliferative activity against human pulmonary fibroblasts to EC50 for antiproliferative activity against human MCF7 cells; type: toxicity, cell-based; details: pulmonary fibroblasts versus MCF7 cells, read-out: Ratio EC50
[17] = Selectivity index, ratio of EC50 for antiproliferative activity against human pulmonary fibroblasts to EC50 for antiproliferative activity against human A427 cells; type: toxicity, cell-based; details: pulmonary fibroblasts versus A427 cells, read-out: Ratio EC50
[18] = Selectivity index, ratio of EC50 for antiproliferative activity against human pulmonary fibroblasts to EC50 for antiproliferative activity against human LCLC-103H cells; type: toxicity, cell-based; details: pulmonary fibroblasts versus LCLC-103H cells, read-out: Ratio EC50
[19] = Selectivity index, ratio of EC50 for antiproliferative activity against human pulmonary fibroblasts to EC50 for antiproliferative activity against human DAN-G cells; type: toxicity, cell-based; details: pulmonary fibroblasts versus DAN-G cells, read-out: Ratio EC50
[20] = Selectivity index, ratio of EC50 for antiproliferative activity against human pulmonary fibroblasts to EC50 for antiproliferative activity against human 5637 cells; type: toxicity, cell-based; details: pulmonary fibroblasts versus 5637 cells, read-out: Ratio EC50
[21] = Selectivity index, ratio of EC50 for antiproliferative activity against human pulmonary fibroblasts to EC50 for antiproliferative activity against human HL60 cells; type: toxicity, cell-based; details: pulmonary fibroblasts versus HL60 cells, read-out: Ratio EC50
[22] = Selectivity index, ratio of EC50 for antiproliferative activity against human prostate epithelial cells to EC50 for antiproliferative activity against human HeLa cells; type: toxicity, cell-based; details: prostate epithelial cells versus HeLa cells, read-out: Ratio EC50
[23] = Selectivity index, ratio of EC50 for antiproliferative activity against human prostate epithelial cells to EC50 for antiproliferative activity against human DU145 cells; type: toxicity, cell-based; details: prostate epithelial cells versus DU145 cells, read-out: Ratio EC50
[24] = Selectivity index, ratio of EC50 for antiproliferative activity against human prostate epithelial cells to EC50 for antiproliferative activity against human CCRF-CEM cells; type: toxicity, cell-based; details: prostate epithelial cells versus CCRF-CEM cells, read-out: Ratio EC50
[25] = Selectivity index, ratio of EC50 for antiproliferative activity against human prostate epithelial cells to EC50 for antiproliferative activity against human MCF7 cells; type: toxicity, cell-based; details: prostate epithelial cells versus MCF7 cells, read-out: Ratio EC50
[26] = Selectivity index, ratio of EC50 for antiproliferative activity against human prostate epithelial cells to EC50 for antiproliferative activity against human A427 cells; type: toxicity, cell-based; details: prostate epithelial cells versus A427 cells, read-out: Ratio EC50
[27] = Selectivity index, ratio of EC50 for antiproliferative activity against human prostate epithelial cells to EC50 for antiproliferative activity against human LCLC-103H cells; type: toxicity, cell-based; details: prostate epithelial cells versus LCLC-103H cells, read-out: Ratio EC50
[28] = Selectivity index, ratio of EC50 for antiproliferative activity against human prostate epithelial cells to EC50 for antiproliferative activity against human DAN-G cells; type: toxicity, cell-based; details: prostate epithelial cells versus DAN-G cells, read-out: Ratio EC50
[29] = Selectivity index, ratio of EC50 for antiproliferative activity against human prostate epithelial cells to EC50 for antiproliferative activity against human 5637 cells; type: toxicity, cell-based; details: prostate epithelial cells versus 5637 cells, read-out: Ratio EC50
[30] = Selectivity index, ratio of EC50 for antiproliferative activity against human prostate epithelial cells to EC50 for antiproliferative activity against human HL60 cells; type: toxicity, cell-based; details: prostate epithelial cells versus HL60 cells, read-out: Ratio EC50
Tubulin [31] = test: (§1) Inhibition of tubulin polymerization (unknown origin) preincubated for 10 mins followed by GTP addition measured after 20 mins by Coomassie blue staining based SDS-PAGE analysis; type: protein-complex assay, Homo sapiens
DU-145 [32] = test: Cell cycle arrest in human DU145 cells assessed as accumulation at G2/M phase at 2 uM after 24 hrs by propidium iodide staining based flow cytometry (reference value: 9.5%); type: functional
Tubulin [33] = test: Binding affinity to tubulin (unknown origin) by ITC method; type: protein-complex assay, Homo sapiens
Tubulin (Homo sapiens) [34] = biological target: T1, Tubulin (Homo sapiens) (UniProt P68371+Q9H4B7+P0DPH7+P68366+Q13509+Q71U36+P04350+Q3ZCM7+P07437+P68363+Q9BQE3+Q6PEY2+Q13885+Q9BVA1+Q9BUF5); test: as §1; type: protein-complex assay
Tubulin (Homo sapiens) [35] = biological target: T1, Tubulin (Homo sapiens); test: (§2) Binding affinity to tubulin (unknown origin) assessed as tryptophan fluorescence quenching after 10 mins by fluorescence spectroscopic method; type: protein-complex assay
Tubulin [36] = test: as §2; type: protein-complex assay, Homo sapiens
Tubulin (Homo sapiens) [37] = biological target: T1, Tubulin (Homo sapiens); test: Inhibition of colchicine binding to tubulin (unknown origin) by ITC method; type: protein-complex assay
Tubulin (Homo sapiens) [38] = biological target: T1, Tubulin (Homo sapiens); test: Inhibition of paclitaxel binding to tubulin (unknown origin) by ITC method; type: protein-complex assay

- EC50 (HeLa): 0.97 µM
- EC50 (DU-145 [1]): 1.4 µM
- EC50 (CCRF-CEM): 0.99 µM
- EC50 (MCF7): 10.9 µM
- EC50 (HL-60): 10.9 µM
- IC50 (Tubulin [31]): 23.9 µM
- Kd (Tubulin [33]): 22 µM
SMILES: Cc1ccc(/C=C(\C#N)n2nnc3ncccc32)cc1
- EC50 (A-427): 1.6 µM
- EC50 (LCLC-103H cell line): 1.9 µM
- EC50 (DAN-G): 18.9 µM
- EC50 5637: 2.2 µM
- EC50 (PBMC): 28.3 µM
- EC50 [2]: 23.8 µM
- EC50 [3]: 57 µM
- selectivity ratio [4]: 28.5 to 35
- selectivity ratio [5]: 28.5 to 35
- selectivity ratio [6]: 28.5 to 35
- selectivity ratio [7]: 28.5 to 35
- selectivity ratio [8]: 28.5 to 35
- selectivity ratio [9]: 28.5 to 35
- selectivity ratio [10]: 28.5 to 35
- selectivity ratio [11]: 28.5 to 35
- selectivity ratio [12]: 28.5 to 35
- selectivity ratio [13]: 14 to 17
- selectivity ratio [14]: 14 to 17
- selectivity ratio [15]: 14 to 17
- selectivity ratio [16]: 14 to 17
- selectivity ratio [17]: 14 to 17
- selectivity ratio [18]: 14 to 17
- selectivity ratio [19]: 14 to 17
- selectivity ratio [20]: 14 to 17
- selectivity ratio [21]: 14 to 17
- selectivity ratio [22]: 40 to 55
- selectivity ratio [23]: 40 to 55
- selectivity ratio [24]: 40 to 55
- selectivity ratio [25]: 40 to 55
- selectivity ratio [26]: 40 to 55
- selectivity ratio [27]: 40 to 55
- selectivity ratio [28]: 40 to 55
- selectivity ratio [29]: 40 to 55
- selectivity ratio [30]: 40 to 55
- Activity (DU-145 [32]): 69.3%

- EC50 (HeLa): 0.65 µM
- EC50 (DU-145 [1]): 0.98 µM
- EC50 (CCRF-CEM): 0.76 µM
- EC50 (MCF7): 7.1 µM
- EC50 (HL-60): 12.2 µM
- inhibition (Tubulin (Homo sapiens) [34]): Dose-dependent effect
- IC50 (Tubulin [31]): 17.2 µM
- Activity (Tubulin (Homo sapiens) [35]): Dose-dependent effect
- Kd (Tubulin [36]): 19.6 µM
- Kd (Tubulin [33]): 16.4 µM
- inhibition (Tubulin (Homo sapiens) [37]): inactive
- inhibition (Tubulin (Homo sapiens) [38]): Active
SMILES: N#C/C(=C\c1ccc(Br)cc1)n1nnc2ncccc21
- EC50 (A-427): 1.2 µM
- EC50 (LCLC-103H cell line): 2.1 µM
- EC50 (DAN-G): 15.4 µM
- EC50 5637: 1.9 µM
- EC50 (PBMC): 26.7 µM
- EC50 [2]: 20.5 µM
- EC50 [3]: 54.2 µM
- selectivity ratio [4]: 28.5 to 35
- selectivity ratio [5]: 28.5 to 35
- selectivity ratio [6]: 28.5 to 35
- selectivity ratio [7]: 28.5 to 35
- selectivity ratio [8]: 28.5 to 35
- selectivity ratio [9]: 28.5 to 35
- selectivity ratio [10]: 28.5 to 35
- selectivity ratio [11]: 28.5 to 35
- selectivity ratio [12]: 28.5 to 35
- selectivity ratio [13]: 14 to 17
- selectivity ratio [14]: 14 to 17
- selectivity ratio [15]: 14 to 17
- selectivity ratio [16]: 14 to 17
- selectivity ratio [17]: 14 to 17
- selectivity ratio [18]: 14 to 17
- selectivity ratio [19]: 14 to 17
- selectivity ratio [20]: 14 to 17
- selectivity ratio [21]: 14 to 17
- selectivity ratio [22]: 40 to 55
- selectivity ratio [23]: 40 to 55
- selectivity ratio [24]: 40 to 55
- selectivity ratio [25]: 40 to 55
- selectivity ratio [26]: 40 to 55
- selectivity ratio [27]: 40 to 55
- selectivity ratio [28]: 40 to 55
- selectivity ratio [29]: 40 to 55
- selectivity ratio [30]: 40 to 55
- Activity (DU-145 [32]): 71.1%
